Results published in the NIST ThermoML archive (doi:10.1016/j.jct.2014.04.016).
Values joined by “and” are separate entries in the source; they are usually repeats but may differ in a detail not shown here. Equal entries are not always repeated. Numbers after ± are expanded uncertainties.

Assay: xn = mol fraction of the nth substance listed
Settings: 100 kPa; for electrical conductivity: Alternating current cell with electrodes; for viscosity: Concentric cylinders viscometry; for mass density: Vibrating tube method

CCCCCCCCOS(=O)(=O)[O-].CCn1cc[n+](C)c1 [1-ethyl-3-methylimidazolium octyl sulfate] + O
Settings	electrical conductivity	mass density	viscosity
287.1 K, Liquid, x1 = 0.1402	–	1076.8 ± 1 kg/m3	–
287.1 K, Liquid, x1 = 0.1605	–	1079.2 ± 1 kg/m3	–
287.1 K, Liquid, x1 = 0.2632	–	1088.7 ± 1 kg/m3	–
287.1 K, Liquid, x1 = 0.3076	0.375 S/m and 0.377 S/m	1091.2 ± 1 kg/m3	169.3 ± 13 mPa·s
287.6 K, Glass, x1 = 0.2632	0.469 ± 0.01 S/m	–	10720 ± 3600 mPa·s and 11920 ± 4200 mPa·s
287.6 K, Liquid, x1 = 0.2632	–	1088.5 ± 1 kg/m3 and 1088.8 ± 1 kg/m3	–
288.1 K, Glass, x1 = 0.1402	–	–	1042 ± 130 mPa·s
288.1 K, Glass, x1 = 0.1605	–	–	13780 ± 5200 mPa·s and 15800 ± 6400 mPa·s
288.1 K, Glass, x1 = 0.1766	0.844 S/m and 0.846 S/m	–	–
288.1 K, Glass, x1 = 0.2119	0.682 S/m and 0.681 S/m	–	–
288.1 K, Glass, x1 = 0.2632	0.48 S/m and 0.478 S/m	–	8600 ± 2600 mPa·s
288.1 K, Liquid, x1 = 0.0401	1.7 S/m	–	–
288.1 K, Liquid, x1 = 0.0586	1.67 ± 0.035 S/m	–	–
288.1 K, Liquid, x1 = 0.0803	1.51 ± 0.031 S/m	–	–
288.1 K, Liquid, x1 = 0.1197	–	1072.5 ± 1 kg/m3	78.76 ± 5.2 mPa·s
288.1 K, Liquid, x1 = 0.1402	1.03 ± 0.022 S/m	1076 ± 1 kg/m3	–
288.1 K, Liquid, x1 = 0.1605	0.932 S/m and 0.934 S/m	1078.8 ± 1 kg/m3 and 1078.7 ± 1 kg/m3	–
288.1 K, Liquid, x1 = 0.2632	–	1088.3 ± 1 kg/m3	–
288.1 K, Liquid, x1 = 0.3076	0.389 S/m and 0.388 S/m	1090.5 ± 1 kg/m3	159.4 ± 12 mPa·s
288.1 K, Liquid, x1 = 0.3555	0.293 S/m and 0.294 S/m	1092.7 ± 1 kg/m3	183.7 ± 14 mPa·s
288.1 K, Liquid, x1 = 0.4108	0.24 S/m and 0.237 S/m	1094.5 ± 1 kg/m3	206.8 ± 16 mPa·s
288.1 K, Liquid, x1 = 0.4688	0.166 S/m and 0.159 S/m	–	–
288.1 K, Liquid, x1 = 0.5001	0.15 ± 0.004 S/m	–	–
288.6 K, Glass, x1 = 0.2632	0.485 ± 0.01 S/m	–	–
289.1 K, Glass, x1 = 0.1402	–	–	396.1 ± 36 mPa·s
289.1 K, Glass, x1 = 0.1605	–	–	8364 ± 2500 mPa·s and 8406 ± 2500 mPa·s
289.1 K, Glass, x1 = 0.1766	0.868 S/m and 0.871 S/m	–	–
289.1 K, Glass, x1 = 0.2632	0.489 ± 0.01 S/m	–	3435 ± 680 mPa·s
289.1 K, Liquid, x1 = 0.1197	1.21 ± 0.025 S/m	–	–
289.1 K, Liquid, x1 = 0.1402	1.06 ± 0.022 S/m	1074.9 ± 1 kg/m3	–
289.1 K, Liquid, x1 = 0.1605	0.964 S/m and 0.963 S/m	1078.4 ± 1 kg/m3	–
289.1 K, Liquid, x1 = 0.2632	0.494 ± 0.015 S/m	1087.8 ± 1 kg/m3	–
289.1 K, Liquid, x1 = 0.3076	–	1089.8 ± 1 kg/m3	150 ± 11 mPa·s
289.6 K, Glass, x1 = 0.2632	–	–	1082 ± 130 mPa·s
289.6 K, Liquid, x1 = 0.2632	0.503 ± 0.018 S/m	1087.9 ± 1 kg/m3	–
290.1 K, Glass, x1 = 0.1402	–	–	213.6 ± 16 mPa·s
290.1 K, Glass, x1 = 0.1605	–	–	5299 ± 1300 mPa·s and 4500 ± 1000 mPa·s
290.1 K, Glass, x1 = 0.1766	0.895 S/m and 0.899 S/m	–	–
290.1 K, Glass, x1 = 0.2119	0.728 ± 0.016 S/m	–	–
290.1 K, Liquid, x1 = 0.1402	–	1074.2 ± 1 kg/m3	–
290.1 K, Liquid, x1 = 0.1605	–	1077.9 ± 1 kg/m3 and 1078 ± 1 kg/m3	–
290.1 K, Liquid, x1 = 0.2632	0.511 ± 0.019 S/m	–	–
290.1 K, Liquid, x1 = 0.3076	–	1089.1 ± 1 kg/m3	141.3 ± 10 mPa·s
291.1 K, Glass, x1 = 0.1402	–	–	122.8 ± 8.6 mPa·s
291.1 K, Glass, x1 = 0.1605	–	–	2756 ± 490 mPa·s and 2752 ± 490 mPa·s
291.1 K, Glass, x1 = 0.1766	0.924 S/m and 0.925 S/m	–	–
291.1 K, Glass, x1 = 0.2119	0.759 S/m and 0.757 S/m	–	–
291.1 K, Liquid, x1 = 0.0803	1.63 ± 0.034 S/m	–	–
291.1 K, Liquid, x1 = 0.1402	1.12 ± 0.024 S/m	1073.7 ± 1 kg/m3	–
291.1 K, Liquid, x1 = 0.1605	1.02 ± 0.021 S/m	1077.5 ± 1 kg/m3	–
291.1 K, Liquid, x1 = 0.2632	0.527 ± 0.011 S/m	1085.5 ± 1 kg/m3	118.9 ± 8.3 mPa·s
291.1 K, Liquid, x1 = 0.3076	0.441 S/m and 0.442 S/m	1088.1 ± 1 kg/m3	133.1 ± 9.4 mPa·s
291.1 K, Liquid, x1 = 0.3555	0.332 ± 0.007 S/m	–	–
291.1 K, Liquid, x1 = 0.4108	0.271 ± 0.006 S/m	–	–
291.1 K, Liquid, x1 = 0.4688	0.192 ± 0.004 S/m	–	–
292.1 K, Glass, x1 = 0.1605	–	–	1353 ± 180 mPa·s and 597.3 ± 60 mPa·s
292.1 K, Glass, x1 = 0.1766	0.951 S/m and 0.953 S/m	–	–
292.1 K, Glass, x1 = 0.2119	0.779 S/m and 0.781 S/m	–	–
292.1 K, Liquid, x1 = 0.1402	–	1073.2 ± 1 kg/m3	80.8 ± 5.3 mPa·s
292.1 K, Liquid, x1 = 0.1605	–	1076.9 ± 1 kg/m3 and 1076.7 ± 1 kg/m3	–
292.1 K, Liquid, x1 = 0.2632	0.543 ± 0.014 S/m	–	–
293.1 K, Glass, x1 = 0.1605	–	–	589.1 ± 59 mPa·s and 232.2 ± 18 mPa·s
293.1 K, Glass, x1 = 0.1766	0.977 S/m and 0.979 S/m	–	–
293.1 K, Glass, x1 = 0.2119	0.805 ± 0.017 S/m	–	–
293.1 K, Liquid, x1 = 0.0401	1.92 S/m	–	–
293.1 K, Liquid, x1 = 0.0586	1.91 ± 0.039 S/m	–	–
293.1 K, Liquid, x1 = 0.0803	1.72 ± 0.036 S/m	–	–
293.1 K, Liquid, x1 = 0.1197	1.36 ± 0.029 S/m	–	59.82 ± 3.9 mPa·s
293.1 K, Liquid, x1 = 0.1402	1.19 ± 0.025 S/m	–	69.89 ± 4.6 mPa·s
293.1 K, Liquid, x1 = 0.1605	1.08 S/m	–	–
293.1 K, Liquid, x1 = 0.2119	0.804 ± 0.017 S/m	–	–
293.1 K, Liquid, x1 = 0.2632	0.564 S/m and 0.562 S/m	–	106.4 ± 7.3 mPa·s
293.1 K, Liquid, x1 = 0.3076	0.477 S/m and 0.479 S/m	–	117.6 ± 8.1 mPa·s
293.1 K, Liquid, x1 = 0.3555	0.357 S/m and 0.359 S/m	–	–
293.1 K, Liquid, x1 = 0.4108	0.294 S/m and 0.293 S/m	–	–
293.1 K, Liquid, x1 = 0.4688	0.214 ± 0.005 S/m	–	–
293.1 K, Liquid, x1 = 0.5001	0.19 S/m and 0.191 S/m	–	–
